PubChem BioAssay AID248 (DTP/NCI, 2004)
“And” between values parts separate entries of the source, which are not always exact repeats. Equal entries are not always repeated. Inconclusive results and toxic doses are left out.

Tested on: L1210 leukemia ip in BDF1 mice, survival T/C
Experiment: NCI In Vivo Anticancer Drug Screen. Data for tumor model L1210 Leukemia (intraperitoneal) in B6D2F1 (BDF1) mice
Conditions: endpoint: mean survival time, higher = longer survival
Procedure, shortened: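 Tumor was transplanted into mice, which were then dosed with test compound or vehicle alone. Survival was recorded for each group, and the treated figure was expressed relative to the control figure.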

[1] = dose: 100.0 mg/kg/injection, schedule: Q04DX003 (ip), vehicle: saline with Tween-80
[2] = dose: 200.0 mg/kg/injection, schedule: Q04DX003 (ip), vehicle: saline with Tween-80
[3] = dose: 400.0 mg/kg/injection, schedule: Q04DX003 (ip), vehicle: saline with Tween-80
[4] = dose: 100.0 mg/kg/injection, schedule: Q01DX009 (ip), vehicle: saline with Tween-80
[5] = dose: 200.0 mg/kg/injection, schedule: Q01DX009 (ip), vehicle: saline with Tween-80

`O=C(Nc1cccc(C2=NCCN2)c1)Nc1ccc(NC(=O)Nc2cccc(C3=NCCN3)c2)c(Cl)c1` was tested, and the T/C (dose: 0.25 mg/kg/injection, schedule: Q01DX Z (ip), vehicle: carboxymethylcellulose (CMC)) was 100 % of control, the T/C (dose: 0.5 mg/kg/injection, schedule: Q01DX Z (ip), vehicle: carboxymethylcellulose (CMC)) was 105 % of control and the T/C (dose: 1.0 mg/kg/injection, schedule: Q01DX Z (ip), vehicle: carboxymethylcellulose (CMC)) was 104 % of control. For the same compound, the T/C (dose: 2.0 mg/kg/injection, schedule: Q01DX Z (ip), vehicle: carboxymethylcellulose (CMC)) was 110 % of control, the T/C (dose: 16.0 mg/kg/injection, schedule: Q01DX Z (ip), vehicle: carboxymethylcellulose (CMC)) was 207 % of control and the T/C (dose: 16.0 mg/kg/injection, schedule: Q01DX Z (ip), vehicle: water) was 218 % of control. The T/C (dose: 31.0 mg/kg/injection, schedule: Q01DX Z (ip), vehicle: water) was 286 % of control, the T/C (dose: 62.0 mg/kg/injection, schedule: Q01DX Z (ip), vehicle: water) was 173 % of control and the T/C (dose: 62.0 mg/kg/injection, schedule: Q01DX Z (oral), vehicle: carboxymethylcellulose (CMC)) was 105 % of control. The T/C (dose: 125.0 mg/kg/injection, schedule: Q01DX Z (oral), vehicle: carboxymethylcellulose (CMC)) was 94 % of control, the T/C (dose: 250.0 mg/kg/injection, schedule: Q01DX Z (oral), vehicle: carboxymethylcellulose (CMC)) was 97 % of control and the T/C (dose: 500.0 mg/kg/injection, schedule: Q01DX Z (oral), vehicle: carboxymethylcellulose (CMC)) was 97 % of control.

`CN(C)CCN1C(=O)c2ccccc2N(C)c2ccccc21` was tested, and the T/C (dose: 25.0 mg/kg/injection, schedule: Q04DX003 (ip), vehicle: saline) was 96 % of control and the T/C (dose: 50.0 mg/kg/injection, schedule: Q04DX003 (ip), vehicle: saline) was 96 % of control.

In the case of `Cc1cc(F)ccc1[As](=O)(O)O`, the T/C (dose: 25.0 mg/kg/injection, schedule: Q04DX003 (ip), vehicle: saline with Tween-80) is reported as 101 % of control.

With `O=C(/C=C/c1ccc(Cl)cc1)c1ccc(Br)cc1` the T/C (dose: 100.0 mg/kg/injection, schedule: Q01DX009 (ip), vehicle: Klucel (hydroxypropylcellulose) (HPC)) was 94 % of control, the T/C (dose: 200.0 mg/kg/injection, schedule: Q01DX009 (ip), vehicle: Klucel (hydroxypropylcellulose) (HPC)) was 94 % of control and the T/C (dose: 400.0 mg/kg/injection, schedule: Q01DX009 (ip), vehicle: Klucel (hydroxypropylcellulose) (HPC)) was 92 % of control.

In the case of `Oc1c2ccsc2cc2ccsc12`, the T/C (dose: 100.0 mg/kg/injection, schedule: Q01DX001 (ip), vehicle: saline with Tween-80) is reported as 94 % of control, the T/C (dose: 200.0 mg/kg/injection, schedule: Q01DX001 (ip), vehicle: saline with Tween-80) is reported as 94 % of control and the T/C (dose: 400.0 mg/kg/injection, schedule: Q01DX001 (ip), vehicle: saline with Tween-80) is reported as 91 % of control.

With `CC(C)CCC1(C)CC(=O)Nc2ccccc21` (stereo unspecified) the T/C (dose: 100.0 mg/kg/injection, schedule: Q01DX001 (ip), vehicle: saline) was 97 % of control, the T/C (dose: 200.0 mg/kg/injection, schedule: Q01DX001 (ip), vehicle: saline) was 94 % of control and the T/C (dose: 400.0 mg/kg/injection, schedule: Q01DX001 (ip), vehicle: saline) was 95 % of control.

In the case of `O=C(O)COc1c(F)cc([N+](=O)[O-])cc1[N+](=O)[O-]`, the T/C (dose: 100.0 mg/kg/injection, schedule: Q04DX002 (ip), vehicle: Klucel (hydroxypropylcellulose) (HPC)) is reported as 106 % of control, the T/C (dose: 200.0 mg/kg/injection, schedule: Q04DX002 (ip), vehicle: Klucel (hydroxypropylcellulose) (HPC)) is reported as 91 % of control and the T/C (dose: 400.0 mg/kg/injection, schedule: Q04DX002 (ip), vehicle: Klucel (hydroxypropylcellulose) (HPC)) is reported as 111 % of control.

`CCCCOB(OCCCC)C(C)C(C#N)C#N` (stereo unspecified) was tested, and the T/C (dose: 100.0 mg/kg/injection, schedule: Q01DX009 (ip), vehicle: saline sonified) was 94 % of control, the T/C [1] was 110 % of control and the T/C (dose: 200.0 mg/kg/injection, schedule: Q01DX009 (ip), vehicle: saline sonified) was 92 % of control. The T/C [2] was 98 % of control, the T/C (dose: 400.0 mg/kg/injection, schedule: Q01DX009 (ip), vehicle: saline sonified) was 89 % of control and the T/C [3] was 93 % of control.

For `COc1ccc(OC)c(/C=N/NC(=O)c2ccccc2Cl)c1`, the T/C (dose: 50.0 mg/kg/injection, schedule: Q01DX009 (ip), vehicle: saline with Tween-80) was 91 % of control, the T/C [4] was 97 % of control and the T/C [5] was 94 % of control.

In the case of `O=C1C=CC(=O)N1CN1CCOCC1` (tested in a mixture with another compound), the T/C (dose: 6.25 mg/kg/injection, schedule: Q01DX009 (ip), vehicle: saline) is reported as 92 % of control, the T/C (dose: 12.5 mg/kg/injection, schedule: Q01DX009 (ip), vehicle: saline) is reported as 100 % of control and the T/C (dose: 100.0 mg/kg/injection, schedule: Q01DX001 (ip), vehicle: Klucel (hydroxypropylcellulose) (HPC)) is reported as 103 % of control and 100 % of control. The T/C (dose: 200.0 mg/kg/injection, schedule: Q01DX001 (ip), vehicle: Klucel (hydroxypropylcellulose) (HPC)) was 103 % of control and 100 % of control and 97 % of control and the T/C (dose: 400.0 mg/kg/injection, schedule: Q01DX001 (ip), vehicle: Klucel (hydroxypropylcellulose) (HPC)) was 95 % of control [middle of 4 runs].

In the case of `O=C1C=CC(=O)N1CO` (tested in a mixture with another compound), the T/C [1] is reported as 97 % of control, the T/C [2] is reported as 92 % of control and the T/C [3] is reported as 91 % of control.

With `CN(Cc1cnc2nc(N)nc(N)c2n1)c1ccc(C(=O)NC(CCC(=O)O)C(=O)O)c(Cl)c1Cl` (stereo unspecified) the T/C (dose: 12.5 mg/kg/injection, schedule: Q01DX009 (ip), vehicle: sodium bicarbonate) was 157 % of control, the T/C (dose: 25.0 mg/kg/injection, schedule: Q01DX009 (ip), vehicle: sodium bicarbonate) was 157 % of control and the T/C (dose: 50.0 mg/kg/injection, schedule: Q01DX009 (ip), vehicle: sodium bicarbonate) was 155 % of control.

For `Cc1ccc(SC2=C(Br)C(=O)c3ccccc3C2=O)cc1`, the T/C (dose: 37.5 mg/kg/injection, schedule: Q01DX001 (ip), vehicle: carboxymethylcellulose (CMC)) was 92 % of control, the T/C (dose: 75.0 mg/kg/injection, schedule: Q01DX001 (ip), vehicle: carboxymethylcellulose (CMC)) was 94 % of control and the T/C (dose: 150.0 mg/kg/injection, schedule: Q01DX001 (ip), vehicle: carboxymethylcellulose (CMC)) was 103 % of control.

`CCOC(=O)Cc1ccc(CC(=O)OCC)cc1` was tested, and the T/C (dose: 75.0 mg/kg/injection, schedule: Q04DX003 (ip), vehicle: saline) was 100 % of control, the T/C (dose: 150.0 mg/kg/injection, schedule: Q04DX003 (ip), vehicle: saline) was 105 % of control and the T/C (dose: 300.0 mg/kg/injection, schedule: Q04DX003 (ip), vehicle: saline) was 96 % of control.

For `NC1=CCNC(=O)N1c1ccccc1`, the T/C (dose: 100.0 mg/kg/injection, schedule: Q01DX Z (ip), vehicle: methylcellulose (MC)) was 105 % of control.

With `O=C(NC(=S)Nc1ccc([N+](=O)[O-])cc1Br)c1ccc(Cl)cc1Cl` the T/C [4] was 89 % of control and 90 % of control, the T/C (dose: 100.0 mg/kg/injection, schedule: Q04DX002 (ip), vehicle: saline with Tween-80) was 87 % of control and 90 % of control and the T/C [5] was 93 % of control and 90 % of control. For the same compound, the T/C (dose: 200.0 mg/kg/injection, schedule: Q04DX002 (ip), vehicle: saline with Tween-80) was 86 % of control and 92 % of control, the T/C (dose: 400.0 mg/kg/injection, schedule: Q01DX009 (ip), vehicle: saline with Tween-80) was 93 % of control and 95 % of control and the T/C (dose: 400.0 mg/kg/injection, schedule: Q04DX002 (ip), vehicle: saline with Tween-80) was 104 % of control and 92 % of control.

With `CCCCOC(=O)C1=C(C(=O)OCCCC)CCCC1` the T/C [4] was 98 % of control and the T/C [5] was 104 % of control.

With `O=C(O)C1CCC(C(=O)O)c2ccccc21` (stereo unspecified) the T/C (dose: 12.5 mg/kg/injection, schedule: Q04DX003 (ip), vehicle: Klucel (hydroxypropylcellulose) (HPC)) was 91 % of control, the T/C (dose: 25.0 mg/kg/injection, schedule: Q04DX003 (ip), vehicle: Klucel (hydroxypropylcellulose) (HPC)) was 96 % of control and the T/C (dose: 50.0 mg/kg/injection, schedule: Q04DX003 (ip), vehicle: Klucel (hydroxypropylcellulose) (HPC)) was 102 % of control. The T/C (dose: 100.0 mg/kg/injection, schedule: Q04DX003 (ip), vehicle: Klucel (hydroxypropylcellulose) (HPC)) was 93 % of control and 91 % of control, the T/C (dose: 200.0 mg/kg/injection, schedule: Q04DX003 (ip), vehicle: Klucel (hydroxypropylcellulose) (HPC)) was 95 % of control and the T/C (dose: 400.0 mg/kg/injection, schedule: Q04DX003 (ip), vehicle: Klucel (hydroxypropylcellulose) (HPC)) was 88 % of control and 91 % of control.

For `CC(=O)[O][Sn]([CH3])([CH3])[CH3]`, the T/C (dose: 0.18 mg/kg/injection, schedule: Q01DX009 (ip), vehicle: Klucel (hydroxypropylcellulose) (HPC)) was 93 % of control, the T/C (dose: 0.37 mg/kg/injection, schedule: Q01DX009 (ip), vehicle: Klucel (hydroxypropylcellulose) (HPC)) was 96 % of control and the T/C (dose: 0.75 mg/kg/injection, schedule: Q01DX009 (ip), vehicle: Klucel (hydroxypropylcellulose) (HPC)) was 104 % of control.

In the case of `CCC(C)C(CCN(C)C)(CNC(=O)CN(CC)CC)c1cccc2ccccc12` (stereo unspecified), the T/C (dose: 100.0 mg/kg/injection, schedule: Q01DX009 (ip), vehicle: saline) is reported as 96 % of control and the T/C (dose: 200.0 mg/kg/injection, schedule: Q01DX009 (ip), vehicle: saline) is reported as 91 % of control.

`Cc1cc(N)ccc1S(=O)(=O)F` was tested, and the T/C [1] was 103 % of control, the T/C [2] was 103 % of control and the T/C [3] was 100 % of control.
